Molecular target: T1, human B2 bradykinin receptors (CHO-hB2 cell membranes) (Homo sapiens, UniProt P30411)
T1 construct: purchased Receptor Biology, Inc. (Baltimore, Md.); host or cells: CHO-hB2 cells (membranes)
T1 sequence (P30411 1-391): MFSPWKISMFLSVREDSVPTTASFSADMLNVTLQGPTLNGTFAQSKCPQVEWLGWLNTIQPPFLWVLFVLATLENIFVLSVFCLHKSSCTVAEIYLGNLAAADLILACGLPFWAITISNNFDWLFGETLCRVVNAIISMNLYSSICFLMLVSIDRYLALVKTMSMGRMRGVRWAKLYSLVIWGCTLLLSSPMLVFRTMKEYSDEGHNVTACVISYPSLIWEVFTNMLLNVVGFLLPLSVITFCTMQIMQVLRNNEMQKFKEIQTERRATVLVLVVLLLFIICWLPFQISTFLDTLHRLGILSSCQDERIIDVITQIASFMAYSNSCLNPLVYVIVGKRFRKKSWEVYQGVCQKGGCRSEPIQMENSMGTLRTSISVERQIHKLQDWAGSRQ
Assay: [35S]GTPγS Binding Assay in CHO-hB2 Cell Membranes
Format: biochemical
Conditions: bradykinin-stimulated [35S]GTPγS binding; for Functional Activity (% Basal): number in parentheses, concentration not given
Procedure: [^35S]GTPγS Binding Assay in CHO-hB2Cell Membranes
CHO-hB2 cell membranes were purchased from Receptor Biology, Inc. (Baltimore, Md.). 10 mg/mL of membrane protein was suspended in 10 mM TRIS-HC pH 7.2, 2 mM EDTA, 10% sucrose.
Membranes were added into 15 mL ice cold binding assay buffer. The assay buffer contained 50 mM HEPES, pH 7.6, 5 mM MgCl2, 100 mM NaCl, 1 mM DTT and 1 mM EDTA. The membrane suspension was homogenized twice with a Polytron and centrifuged at 3000 rpm for 10 min. The supernatant was then centrifuged at 18,000 rpm for 20 min. The pellet was saved in a tube and resuspended.
The pellet membranes (40 μg/mL) were preincubated with SPA (scintillation proximity assay) beads (20 mg/mL) at 25 C. ° for 45 min in the assay buffer. The SPA beads (5 mg/mL) coupled with membranes (10 μg/mL) were then incubated with 0.5 nM [^35S]GTPγS in the same HEPES buffer containing 50 μM GDP in total volume of 200 μL. Bradykinin was used to stimulate [^35S]GTPγS binding. Varying concentrations of drugs were incubated with bradykinin to inhibit bradykinin-stimulated [^35S]GTPγS binding. The basal binding was tested in the absence of bradykinin and no specific binding was tested in the present 10 μM unlabeled GTPγS. The radioactivity was quantified on a Packard Top Count, and calculated.
% of Basal=(stimulated binding−non specific binding)/(basal binding−non specific binding)×100.

Cc1ccc2cccc(OCc3c(Cl)ccc(N(C)C(=O)Cc4cc(C(=O)c5ccc(C#N)cc5)n(C)c4)c3Cl)c2n1 [Compound 4, 2-[5-(4-Cyano-benzoyl)-1-methyl-1H-pyrrol-3-yl]-N-[2,4-dichloro-3-(2-methyl-quinolin-8-yloxymethyl)-phenyl]-N-methyl-acetamide]
Functional Activity (word result): Antagonist

COc1ccc(C(=O)c2ccc(CC(=O)N(C)c3ccc(Cl)c(COc4cccc5ccc(C)nc45)c3Cl)[nH]2)cc1 [Compound 5]
Functional Activity (word result): Antagonist

CCn1c(CC(=O)N(C)c2ccc(Cl)c(COc3cccc4ccc(C)nc34)c2Cl)ccc1C(=O)c1ccc(C#N)cc1 [Compound 8]
Functional Activity (word result): Antagonist
Functional Activity (% Basal): 40 % Basal

CCCn1c(CC(=O)N(C)c2ccc(Cl)c(COc3cccc4ccc(C)nc34)c2Cl)ccc1C(=O)c1ccc(C#N)cc1 [Compound 9]
Functional Activity (word result): No effect
Functional Activity (% Basal): 1 % Basal

CCCCn1c(CC(=O)N(C)c2ccc(Cl)c(COc3cccc4ccc(C)nc34)c2Cl)ccc1C(=O)c1ccc(C#N)cc1 [Compound 10]
Functional Activity (word result): No effect
Functional Activity (% Basal): 1 % Basal

Cc1ccc2cccc(OCc3c(Cl)ccc(N(C)C(=O)Cc4ccc(C(=O)c5ccc(C#N)cc5)n4CC4CC4)c3Cl)c2n1 [Compound 11, 2-[5-(4-Cyano-benzoyl)-1-cyclopropylmethyl-1H-pyrrol-2-yl]-N-[2,4-dichloro-3-(2-methyl-quinolin-8-yloxymethyl)-phenyl]-N-methyl-acetamide]
Functional Activity (word result): No effect
Functional Activity (% Basal): 1 % Basal

Cc1ccc2cccc(OCc3c(Cl)ccc(N(C)C(=O)Cc4ccc(C(=O)c5ccc(C#N)cc5)n4CC(C)C)c3Cl)c2n1 [Compound 12]
Functional Activity (word result): No effect
Functional Activity (% Basal): 1 % Basal

Cc1ccc2cccc(OCc3c(Cl)ccc(N(C)C(=O)Cc4ccc(C(=O)c5ccc(C#N)cc5)n4CCC(C)C)c3Cl)c2n1 [Compound 13]
Functional Activity (word result): No effect
Functional Activity (% Basal): 1 % Basal

CCN(C(=O)Cc1ccc(C(=O)c2ccc(C#N)cc2)n1C)c1ccc(C)c(COc2cccc3ccc(C)nc23)c1C [Compound 16]
Functional Activity (word result): No effect
Functional Activity (% Basal): 1 % Basal

CCN(C(=O)Cc1ccc(C(=O)c2ccc(Cl)nc2)n1C)c1ccc(Cl)c(COc2cccc3ccc(C)nc23)c1Cl [Compound 17]
Functional Activity (word result): No effect
Functional Activity (% Basal): 1 % Basal

CCN(C(=O)Cc1ccc(C(=O)c2ccc(C#N)cc2)n1C)c1ccc(Cl)c(COc2cccc3ccc(C)nc23)c1Cl [Compound 18]
Functional Activity (word result): No effect
Functional Activity (% Basal): 1 % Basal

Cc1ccc2cccc(OCc3c(Cl)ccc(N(C)C(=O)Cc4ccc(C(=O)CN5CCC(c6ccccc6)CC5)n4C)c3Cl)c2n1 [Compound 58, N-[2,4-Dichloro-3-(2-methyl-quinolin-8-yloxymethyl)-phenyl]-N-methyl-2-{1-methyl-5-[2-(4-phenyl-piperidin-1-yl)-acetyl]-1H-pyrrol-2-yl}-acetamide]
Functional Activity (word result): No effect
Functional Activity (% Basal): 1 % Basal

Cc1ccc2cccc(OCc3c(Cl)ccc(N(C)C(=O)Cc4ccc(C(=O)CN5CCC(Cc6ccccc6)CC5)n4C)c3Cl)c2n1 [Compound 59]
Functional Activity (word result): No effect
Functional Activity (% Basal): 1 % Basal

Cc1ccc2cccc(OCc3c(Cl)ccc(N(C)C(=O)Cc4ccc(C(=O)c5cccs5)n4C)c3Cl)c2n1 [Compound 61]
Functional Activity (word result): Weak antagonist

Cc1ccc2cccc(OCc3c(Cl)ccc(N(C)C(=O)Cc4ccc(C(=O)c5ccc(C(=O)N(C)C)cc5)n4C)c3Cl)c2n1 [Compound 62, 4-[5-({[2,4-Dichloro-3-(2-methyl-quinolin-8-yloxymethyl)-phenyl]-methyl-carbamoyl}-methyl)-1-methyl-1H-pyrrole-2-carbonyl]-N,N-dimethyl-benzamide]
Functional Activity (word result): Antagonist

Cc1ccc2cccc(OCc3c(Cl)ccc(N(C)C(=O)Cc4ccc(C(=O)c5ccc([N+](=O)[O-])cc5)n4C)c3Cl)c2n1 [Compound 63]
Functional Activity (word result): Antagonist

COC(=O)c1ccc(C(=O)c2ccc(CC(=O)N(C)c3ccc(Cl)c(COc4cccc5ccc(C)nc45)c3Cl)n2C)cc1 [Compound 64]
Functional Activity (word result): Antagonist

Cc1ccc2cccc(OCc3c(Cl)ccc(N(C)C(=O)Cc4ccc(C(=O)c5ccc([N+](=O)[O-])c(C)c5)n4C)c3Cl)c2n1 [Compound 65, N-[2,4-Dichloro-3-(2-methyl-quinolin-8-yloxymethyl)-phenyl]-N-methyl-2-[1-methyl-5-(3-methyl-4-nitro-benzoyl)-1H-pyrrol-2-yl]-acetamide]
Functional Activity (word result): Antagonist

Cc1ccc2cccc(OCc3c(Cl)ccc(N(C)C(=O)Cc4ccc(C(=O)c5ccccc5[N+](=O)[O-])n4C)c3Cl)c2n1 [Compound 66]
Functional Activity (word result): Antagonist

Cc1ccc2cccc(OCc3c(Cl)ccc(N(C)C(=O)Cc4ccc(C(=O)c5ccc(Cl)nc5)n4C)c3Cl)c2n1 [Compound 67, 2-[5-(6-Chloro-pyridine-3-carbonyl)-1-methyl-1H-pyrrol-2-yl]-N-[2,4-dichloro-3-(2-methyl-quinolin-8-yloxymethyl)-phenyl]-N-methyl-acetamide]
Functional Activity (word result): Antagonist

COc1ccc(C(=O)c2ccc(CC(=O)N(C)c3ccc(Cl)c(COc4cccc5ccc(C)nc45)c3Cl)n2C)cc1 [Compound 68]
Functional Activity (word result): Weak antagonist
Functional Activity (% Basal): 4 % Basal

CSc1ccc(C(=O)c2ccc(CC(=O)N(C)c3ccc(Cl)c(COc4cccc5ccc(C)nc45)c3Cl)n2C)cc1 [Compound 69]
Functional Activity (word result): Antagonist

Cc1ccc2cccc(OCc3c(Cl)ccc(N(C)C(=O)Cc4ccc(C(=O)c5ccc(C#N)nc5)n4C)c3Cl)c2n1 [Compound 71]
Functional Activity (word result): Antagonist

CC(=O)Nc1cccc(C(=O)c2ccc(CC(=O)N(C)c3ccc(Cl)c(COc4cccc5ccc(C)nc45)c3Cl)n2C)c1 [Compound 72]
Functional Activity (word result): Antagonist

Cc1ccc2cccc(OCc3c(Cl)ccc(N(C)C(=O)Cc4ccc(C(=O)c5ccc([S+](C)[O-])cc5)n4C)c3Cl)c2n1 (stereo not shown) [Compound 73, N-[2,4-Dichloro-3-(2-methyl-quinolin-8-yloxymethyl)-phenyl]-2-[5-(4-methanesulfinyl-benzoyl)-1-methyl-1H-pyrrol-2-yl]-N-methyl-acetamide]
Functional Activity (word result): Antagonist

CC(=O)Nc1ccc(C(=O)c2ccc(CC(=O)N(C)c3ccc(Cl)c(COc4cccc5ccc(C)nc45)c3Cl)n2C)cc1 [Compound 74, 2-[5-(4-Acetylamino-benzoyl)-1-methyl-1H-pyrrol-2-yl]-N-[2,4-dichloro-3-(2-methyl-quinolin-8-yloxymethyl)-phenyl]-N-methyl-acetamide]
Functional Activity (word result): Antagonist

Cc1ccc2cccc(OCc3c(Cl)ccc(N(C)C(=O)Cc4ccc(C(=O)c5ccc(S(C)(=O)=O)cc5)n4C)c3Cl)c2n1 [Compound 75, N-[2,4-Dichloro-3-(2-methyl-quinolin-8-yloxymethyl)-phenyl]-2-[5-(4-methanesulfonyl-benzoyl)-1-methyl-1H-pyrrol-2-yl]-N-methyl-acetamide]
Functional Activity (word result): Antagonist

Cc1ccc2cccc(OCc3c(Cl)ccc(N(C)C(=O)Cc4ccc(C(=O)c5ccc(C#N)cc5)n4C)c3Cl)c2n1 [Compound 76]
Functional Activity (word result): Antagonist

Cc1ccc2cccc(OCc3c(C)ccc(N(C)C(=O)Cc4ccc(C(=O)c5ccc(C#N)cc5)n4C)c3C)c2n1 [Compound 79, 2-[5-(4-Cyano-benzoyl)-1-methyl-1H-pyrrol-2-yl]-N-[2,4-dimethyl-3-(2-methyl-quinolin-8-yloxymethyl)-phenyl]-N-methyl-acetamide]
Functional Activity (word result): Antagonist
Functional Activity (% Basal): 100 % Basal

Cc1ccc2cccc(OCc3c(C)ccc(N(C)C(=O)CCc4ccc(C(=O)c5cccs5)n4C)c3C)c2n1 [Compound 80]
Functional Activity (word result): Weak antagonist

Cc1ccc2cccc(OCc3c(C)ccc(N(C)C(=O)CCc4ccc(C(=O)c5ccncc5)n4C)c3C)c2n1 [Compound 82]
Functional Activity (word result): Antagonist
Functional Activity (% Basal): 50 % Basal

Cc1ccc2cccc(OCc3c(C)ccc(N(C)C(=O)CCc4ccc(C(=O)c5cccnc5)n4C)c3C)c2n1 [Compound 84]
Functional Activity (word result): Antagonist

— patent US20040192720A1, “Novel heteroaryl alkylamide derivatives useful as bradykinin receptor modulators” (priority 2003, published 2004)
